Assay results from patent US12083082B2, “Methods for treating neurodegenerative disorders” (Alzheon, Inc., priority 2018, dated 2024).
“And” between values parts separate entries of the source, which are not always exact repeats. Equal entries are not always repeated. “Also recorded” adds a separate entry of the source.

Assays:
[1] = target: T1, recombinant human Aβ42 peptide (Homo sapiens, UniProt P05067); test: Ion mobility mass spectrometry (IMS MS) anti-Aβ42 oligomer activity / binding study; type: biochemical; parameters: key to Presence of Aβ42 Pentamer / Presence of Aβ42 Hexamer / Presence of Aβ42 Decamer / Presence of Aβ42 Dimer / Presence of Aβ42 Trimer / Presence of Aβ42 Tetramer: Y = yes, presence of oligomer species; N = no presence of oligomer species
T1 construct: recombinant human Aβ42 peptide; purchased BioLegend 843801
T1 sequence (P05067 672-713 limits assumed): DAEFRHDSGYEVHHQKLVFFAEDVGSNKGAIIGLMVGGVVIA
Description: The conditions used for mass spectrometry, using a Waters Synapt G2-S, were as follows: positive polarity in sensitivity mode, capillary=2.5 kV, nebulizer=2 mbar, source temperature=80° C., desolvation temperature=60° C., sample cone setting=35 V, source offset setting=60 V, and mass range=500 to 4000 m/z. These conditions were maintained throughout the study to ensure consistency of the data and to avoid influencing the detection of oligomers due to preferential ionization conditions.
Samples were directly infused into the mass spectrometer at a flow rate of 10 μL/min using a Protea PM-1000 Syringe Pump and Hamilton 1 mL Syringe. The data acquisition of the amyloid peptide was performed using a Waters Synapt G2-S quadrupole time of flight mass spectrometer (Q-TOF MS) with traveling wave ion mobility (Waters Corp., Milford, MA). The data were acquired using the systems sensitivity mode to allow for the detection of the less abundant oligomers. Samples were infused at room temperature. The IMS MS studies were conducted at Protea, Inc. (Morgantown, WV).
1 mg of recombinant human Aβ42 peptide from BioLegend (99% purity, cat #843801) was reconstituted in 200 μL of Fisher Optima LC/MS grade water (cat #W6-1) and vortexed vigorously for 2 minutes to solubilize the peptide creating a 5 mg/mL solution. Samples were then diluted to a final concentration of 22 pmol/μL prior to incubation. The sample mixtures were then incubated at room temperature for 0, 4 and 24 hours. After the acquisition of incubated samples was completed, the raw data were analyzed using the Waters MassLynx v2.4 suite with DriftScover v2.7 to visualize drift times for the peptide.
Aβ42 species characterization using IMS MS was performed by direct infusion at 22 pmol/μL in water. The peptide was prepared in water to maintain the native state conformation of the peptide and ion mobility data acquisition was performed to detect and characterize the conformational changes of the native state monomer and any oligomers that may have formed during the incubation.
The data acquisition for Aβ42 peptide was performed using a Waters Synapt G2-S quadrupole time of flight mass spectrometer (Q-TOF MS) with traveling wave ion mobility (Waters Corp., Milford, MA). The data were acquired using the systems sensitivity mode to allow for the detection of the less abundant oligomers. Samples were infused at room temperature as above.
1 mg of 3-SPA was reconstituted in 1 mL of Fisher Optima LC/MS grade water (cat #W6-1) and vortexed vigorously for 2 minutes until completely dissolved. The sample was then diluted to create […], and 22,000 pmol/μL solutions to perform a 100-fold, and 1,000-fold molar excess for the binding experiments with Aβ42 peptide.
1 mg of recombinant human Aβ42 peptide was reconstituted in 200 μL of Fisher Optima LC/MS grade water and vortexed vigorously to solubilize to a 5 mg/mL solution. Samples were then diluted to their final concentrations prior to incubation. The sample mixtures were incubated at room temperature for 0, 4 and 24 hours, followed by analysis as described above.
To address the high conformational flexibility of Aβ42 and to characterize its interaction with 3-SPA, we used ion mobility mass spectrometry (IMS), with a quadrupole time of flight mass spectrometer (Q-TOF MS) with traveling wave ion mobility. Resulting effect of modulation of Aβ conformational space is the prevention of oligomer formation. We have found not only concentration dependency but also time-dependency of this anti-Aβ42 oligomeric effect of 3-SPA as indicated in FIG. 3 and FIG. 4. 100- vs 1,000-fold molar excess of 3-SPA over Aβ42 results in a different sub-species profile of inhibition of Aβ42 oligomer formation. The activity is also compared with the same excess dependency of tramiprosate.

[2] = Brain penetration of oral 3-SPA in male SD rats (brain, CSF, plasma); type: in vivo, Sprague-Dawley rats; conditions: oral 30 mg/kg
Description: A separate group of animals was dosed orally at 30 mg/kg and terminal brain, CSF and plasma samples were collected at 1, 2, 6, and 24 hr (3 animals for each time point) for bioanalyses of 3-SPA in brain and CSF, and to estimate brain penetration relative to plasma concentrations. The in-life study was performed at Agilux Laboratories (Worcester, MA) following quality standards in line with Good Laboratory Practice. Bioanalyses of rat plasma, CSF and brain was preformed using LC-MS/MS at Nextcea. Prior to processing rat brains for bioanalysis, the brains were perfused to remove pooled blood. Pharmacokinetic data analyses were conducted using Winnonlin Professional v5.0.1 (Pharsight, Mountain View, CA).
The plasma concentration of a single dose of 3-SPA, dissolved in saline as a clear solution, administered orally and intravenously to rats at a dose level of 30 mg/kg and 10 mg/kg, respectively, are shown in FIG. 9. Brain, CSF and corresponding plasma levels after a single oral dose of dose of 30 mg/kg of 3-SPA at 1, 2, 6, and 24 hr are shown in FIG. 10. Mean PK curves were used for calculation of pharmacokinetic parameters.

[3] = 100:1 excess ratio compound:protein
[4] = 1000:1 excess ratio compound:protein

O=C(O)CCS(=O)(=O)O [3-SPA, 3-sulfopropanoic acid]
Presence of Aβ42 Decamer [1, 3]: N | Presence of Aβ42 Dimer [1, 3]: Y | Presence of Aβ42 Hexamer [1, 3]: Y | Presence of Aβ42 Pentamer [1, 3]: Y | Presence of Aβ42 Tetramer [1, 3]: Y | Presence of Aβ42 Trimer [1, 3]: Y | Presence of Aβ42 Decamer [1, 4]: N | Presence of Aβ42 Dimer [1, 4]: N | Presence of Aβ42 Hexamer [1, 4]: N | Presence of Aβ42 Pentamer [1, 4]: Y | Presence of Aβ42 Tetramer [1, 4]: N | Presence of Aβ42 Trimer [1, 4]: N | Inhibition of formation of Aβ42 oligomers (in words) ([1]; 4 hr incubation, ratio 1:1000): inhibits the formation of oligomers with the exception of dimers, trimers and pentamers; also recorded: Detection of Aβ42 dimers, trimers and pentamers | Inhibition of formation of Aβ42 oligomers (in words) ([1]; 24 hours incubation, 1,000-fold excess): Near complete prevention of formation of Aβ42 oligomers except for pentamers; also recorded: the only oligomeric species not inhibited were pentamers of Aβ42; also recorded: Only pentamers were detected | AUC 0-inf_obs ([2]; Brain): 33224.4 ng·h/mL | AUC 0-t ([2]; Brain): 7586.5 ng·h/mL | Cmax ([2]; Brain): 649.8 ng/mL | t½ ([2]; Brain): 64.07 h | AUC 0-inf_obs ([2]; CSF): 726.2 ng·h/mL | AUC 0-t ([2]; CSF): 463.6 ng·h/mL | Cmax ([2]; CSF): 159.2 ng/mL | t½ ([2]; CSF): 3.56 h | AUC 0-inf_obs ([2]; Plasma): 30099.2 ng·h/mL | AUC 0-t ([2]; Plasma): 30001.7 ng·h/mL | Cmax ([2]; Plasma): 5714.6 ng/mL | t½ ([2]; Plasma): 3.03 h | CSF/brain AUC % [2]: 6.1% | Brain/Plasma (AUC %), brain penetration ([2]; 30 mg/kg): 25% and 25.3%
